Consider one compound from patent US8765096B2, “Methods and compositions for treating and diagnosing kidney disease” (Endocyte, Inc, priority 2007, dated 2014).

The target in one series is folate receptor (Homo sapiens, UniProt P15328). The settings on record: KB cells, 1 hour at 37° C., 100 nM 3H-folic acid, increasing competitor concentrations; folic acid = 1.0.
In the next series the test system is KB cells. In words: Cell viability in KB cells. The settings on record: 2, 10, and 50 nM, at 24 hours.

“Also recorded” adds a separate entry of the source.

Sequence of folate receptor (P15328 25-234): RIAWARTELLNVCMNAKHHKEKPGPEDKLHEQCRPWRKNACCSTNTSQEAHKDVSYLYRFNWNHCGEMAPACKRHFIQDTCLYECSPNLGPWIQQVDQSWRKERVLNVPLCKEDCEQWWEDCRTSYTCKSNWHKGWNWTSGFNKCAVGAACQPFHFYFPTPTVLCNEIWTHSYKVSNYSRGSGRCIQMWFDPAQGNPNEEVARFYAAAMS

For the compound `CO[C@H]1C[C@@H]2CC[C@@H](C)[C@@](O)(O2)C(=O)C(=O)N2CCCC[C@H]2C(=O)O[C@H]([C@H](C)C[C@@H]2CC[C@@H](O)[C@H](OC)C2)CC(=O)[C@H](C)/C=C(\C)[C@@H](OC(=O)OCCSSC[C@H](NC(=O)[C@H](CC(=O)O)NC(=O)[C@H](CC(=O)O)NC(=O)[C@H](CCCNC(=N)N)NC(=O)[C@H](CC(=O)O)NC(=O)CC[C@H](NC(=O)c2ccc(NCc3cnc4nc(N)[nH]c(=O)c4n3)cc2)C(=O)O)C(=O)O)[C@@H](OC)C(=O)[C@H](C)C[C@H](C)/C=C/C=C/C=C/1C` [EC0371], at folate receptor, the “relative affinity at the folate receptor” value is 0.5. In the series on KB cells, the “cytotoxicity (cell viability)” value was “Neither rapamycin nor EC0371 is cytotoxic; also recorded: neither rapamycin nor EC0371 was found to be cytotoxic”.
